From patent publication US10479781B2, “Peptidyl nitril compounds as dipeptidyl peptidase I inhibitors” (Prozymex A/S, priority 2015, dated 2019)

What was measured:
[1] = Test for metabolic stability (human liver microsomes); type: in vitro ADME; settings: pH 7.4; human liver microsomes 1.0 mg/mL, 1 mM NADPH, test compound 5 μM, 37° C.
Protocol: Test for Metabolic Stability
The test for metabolic stability was performed by Absorption System, Exton, Pa. 19341, USA.
The test compound (DPPI inhibitor) was dissolved in 100% DMSO at a concentration of 10 mM. The reaction mixture, consisted of Mouse or Human Liver Microsomes (1.0 mg/mL), 1 mM NADPH, 100 mM Potassium Phosphate, pH 7.4, 10 mM Magnesium Chloride and test compound at a concentration of 5 μM.
An aliquot of the reaction mixture (without cofactors) was incubated in a shaking water bath at 37° C. for 3 minutes. Another aliquot of the reaction mixture was prepared as the negative control. The test compound was added into both the reaction mixture and the negative control at a final concentration of 5 μM.
The reaction was initiated by the addition of NADPH to 1 mM (not into the negative controls) and then incubated in a shaking water bath at 37° C. Aliquots (100 μL) were withdrawn at 0, 10, 20, 30, and 60 minutes or at 0, 15, 30 and 60 minutes and combined with 900 μL of ice-cold 50/50 acetonitrile/dH2O to terminate the reaction. A control (testosterone) was run simultaneously with the test compound in a separate reaction. […] The elimination half-lives associated with the disappearance of the test and control compounds were determined to compare their relative metabolic stability.

DPPI [2] = molecular target: T1, DPPI (Homo sapiens, UniProt P53634); assay: Human DPPI inhibition assay 2; type: biochemical; design: purchased UNIZYME Laboratories A/S; settings: substrate Gly-Phe-paranitroanilide 750 μM, pH 4.5, 37° C.
Protocol: Human DPPI Inhibition Assay 2
Using this assay, the IC50 value of the compound of the invention may be determined using Gly-Phe-paranitroanilide as a DPPI specific substrate.
Assay buffer: 20 mM citric acid (2.1 g citric acid), 150 mM NaCl (4.4 g NaCl) and 2 mM EDTA (370 mg EDTA) was dissolved in 500 mL H2O, and pH was adjusted to 4.5 with HCl.
Substrate: Gly-Phe-paranitroanilide (Sigma Aldrich; Cat. No G0142) was used as the substrate for determination of IC50 values. Km was 2.2 mM. The substrate was solubilized in dimethylformamid to give a 0.2-0.5 M stock solution, which was then further diluted with stirring in assay buffer to a final concentration of 1 mM.
DPPI: Human DPPI (obtained from UNIZYME Laboratories A/S, DK-2970 Hørsholm, Denmark) was stored at −20° C. in a buffer containing 2.5 mM Na-phosphate, 150 mM NaCl, 2 mM cysteamine, 50% glycerol, pH 7.0 at a concentration of 2.2 mg/mL (≈12 μM). This stock solution was diluted 800-3200 times in assay buffer to a concentration of about 4-15 nM.
Assay conditions: The assay was performed in 96-well plates. […] The absorption was measured at 405 nm at 37° C. for every 90 seconds for 12 minutes or every 20 seconds for 4 minutes. […] IC50 was determined using a 4-parameter logistic equation in a non-linear curve fitting routine.

DPPI [3] = molecular target: T1, DPPI; assay: Cell based DPPI inhibition assay 2; design: endogenous in cells; host or cells: U937 cells; settings: neutrophil elastase activity in U937 cells grown 48 hours with inhibitor
Protocol: Cell Based DPPI Inhibition Assay 2
Using the cell based assay described below, the biological activity of the compounds of the invention or other DPPI inhibitors may be determined.
Neutrophil elastase enzymatic activities in U937 cells grown in the presence of DPPI inhibitors were measured by methods modified from Méthot N; Rubin J; Guay D; Beaulieu C; Ethier D; Reddy T J; Riendeau D and Percival M D (2007) J Biol Chem, 282, 20836-20846.
U937 cells were propagated in culture media (RPMI 1640, supplemented with 10% FBS, 10 mM Hepes, 1 mM sodium pyrovate, 100 units/ml of each of penicillin and streptomycin). Cells were seeded in 12-well plates at ≈0.2×10^6 cells/ml in volumes of 1.5 ml per well in the presence of no or increasing concentrations of DPPI inhibitor. 12 points in duplicate in the range of 0.01 nM to 10 μM inhibitor were tested. […]
The activity of neutrophil elastase was determined by measuring the enzymatic release of chromogenic p-nitroaniline from the substrate MetOSuc-Ala-Ala-Pro-Val-pNA, which leads to an increase in absorbance at 405 nm. Assays were carried out in 96-well plates in a final volume of 200 μL at 37° C., and absorbance was measured 8 times during 21 minutes using a plate reader. IC50 was determined using a 4-parameter logistic equation in a non-linear curve fitting routine.

T1 sequence (P53634 231-394 limits assumed): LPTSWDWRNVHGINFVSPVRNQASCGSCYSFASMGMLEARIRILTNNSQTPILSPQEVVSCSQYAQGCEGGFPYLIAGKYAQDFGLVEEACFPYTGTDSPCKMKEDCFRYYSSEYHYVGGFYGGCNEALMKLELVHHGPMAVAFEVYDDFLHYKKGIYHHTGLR
T1 sequence (P53634 25-134 limits assumed): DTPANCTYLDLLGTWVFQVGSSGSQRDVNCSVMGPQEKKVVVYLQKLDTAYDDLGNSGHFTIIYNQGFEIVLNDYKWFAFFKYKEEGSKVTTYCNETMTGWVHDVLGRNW
T1 sequence (P53634 395-463 limits assumed): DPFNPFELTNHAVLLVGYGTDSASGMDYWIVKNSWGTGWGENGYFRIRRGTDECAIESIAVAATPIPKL

Which half-life at 5 μM [1] does the source give for CN1CCN(Cc2ccc(-c3ccc(C[C@@H](C#N)NC(=O)C4(N)CCOCC4)c(F)c3)cc2)CC1 [PZ1101, (S)-4-amino-N-(1-cyano-2-(3-fluoro-4′-((4-methylpiperazin-1-yl)methyl)-[1,1′-biphenyl]-4-yl)ethyl)tetrahydro-2H-pyran-4-carboxamide] here?
The half-life at 5 μM was > 2 h.

And the IC50 (DPPI [2])?
The IC50 was ~6 nM.

And the IC50 (DPPI [3])?
The IC50 was ~2.5 nM.
